Experimental data: US20220347309A1, “PYRROLOBENZODIAZEPINE RESISTANCE” (ADC THERAPEUTICS SA, priority 2018, published 2022)

Key:
Format in all cases: cell-based, human
[1] = system: NCI-N87 PBDr cells (SG3199 acquired resistant); assay: MTS in vitro cytotoxicity, 144 h continuous exposure
Experimental: To generate a resistant population to either ADCT-502 or SG3199, human gastric cancer NCI-N87 cells (expressing HER2) were incubated with an approximate IC50 dose of the drug for 144 hours. The cells were then washed and returned to fresh medium until normal cell growth was recovered. This process was repeated until a measurable and stable loss in cytotoxic efficacy was established using the MTS assay.
To measure the in vitro cytotoxicity with the MTS assay, cells were incubated with a 10-fold dilution range of ADCT-502 or SG3199, and incubated with continuous exposure for 144 hours (at least three cell doubling times under normal cell culture conditions). After incubation the CellTiter 960 AQueous One Solution Cell Proliferation Assay (MTS) was used to measure growth inhibition, by adding 20 μl reagent to the cells and incubating for 3-4 hours, then reading the absorbance at 492 nm. Mean % growth of the ADC or PBD treated cells was calculated relative to an untreated control.
To measure the cross-resistance of the NCI-N87 ADCR cells to the SG3199 PBD warhead, and the PBDR cells to ADCT-502, the in vitro cytotoxicity assay was carried out as described above, treating the cells with the opposite drug molecule to the one with which they were generated.

[2] = system: Karpas-299 wt cells; assay: DNA interstrand cross-linking, single cell gel electrophoresis (comet) assay; conditions: 130 μM ADCT-301 or 280 μM SG3199 (figure legends: pM) for 2 hours, then 24 hours
Experimental: The formation of inter-strand cross-links (ICLs) by either ADCT-301 or SG3199 was measured using a modification of the single cell gel electrophoresis (comet) assay (Spanswick V J, Hartley J M, Hartley J A. Measurement of DNA interstrand crosslinking in individual cells using the Single Cell Gel Electrophoresis (Comet) assay. Methods Mol Biol. 613, 267-82 (2010)). Cells were treated with […] ADCT-301 or […] SG3199 for 2 hours, then washed and incubated for 24 hours under normal cell culture conditions. All cells were irradiated with 18 Gy (5 Gy/min for 3.6 min). Comet slides were reviewed under a 20× objective on an epifluorescence microscope equipped with: Hg arc lamp; 580 nm dichroic mirror; and 535 nm excitation and 645 nm emission filters suitable for visualising of propidium iodide staining with a minimum of 50 Comet images acquired per treatment condition. The Olive Tail Moment (OTM) was determined as the product of the tail length and the fraction of total DNA in the tail as recorded by Komet 6 software (Andor Technology, Belfast, UK) and the percentage reduction in OTM calculated according to the formula:
% decrease in tail moment=[1−(TMdi−TMcu)/(TMci−TMcu)]*100 • [TMdi=Tail Moment drug irradiated; TMcu=TM control un-irradiated; TMci=TM control irradiated]
The results are shown in FIG. 18 for the ADCR line and FIG. 19 for the PBDR line.

[3] = system: NCI-N87 ADCr cells; assay: DNA interstrand cross-linking, comet assay; conditions: 1 nM ADCT-502 or 1.7 nM SG3199 for 2 hours, then 24 hours
Experimental: (§1) The formation of inter-strand cross-links (ICLs) by either ADCT-502 or SG3199 was measured using the modification of the single cell gel electrophoresis (comet) assay. Cells were treated with 1 nM ADCT-502 or 1.7 nM SG3199 for 2 hours, then washed and incubated for 24 hours under normal cell culture conditions. All cells were irradiated with 18 Gy (5 Gy/min for 3.6 min). ICL formation was quantitated by measuring Olive tail moment (OTM) using the Komet 4 software, and the percentage reduction in OTM compared to an untreated irradiated control.
(§2) The results are shown in FIG. 20 for the ADCR line and FIG. 21 for the PBDR line.

[4] = system: NCI-N87 PBDr cells; assay: DNA interstrand cross-linking, comet assay; conditions: 1 nM ADCT-502 or 1.7 nM SG3199 for 2 hours, then 24 hours
Experimental: as §1, §2

[5] = system: NCI-N87 wt cells; assay: DNA interstrand cross-linking, comet assay; conditions: 1 nM ADCT-502 or 1.7 nM SG3199 for 2 hours, then 24 hours
Experimental: as §1, §2

[6] = system: Karpas-299 wt cells; assay: Single dose 2-hour exposure cytotoxicity (MTS); conditions: 130 pM ADCT-301 or 280 pM SG3199 for 2 hours, then 96 hours, vs untreated control

COc1cc2c(cc1OCCCCCOc1cc3c(cc1OC)C(=O)N1C=C(C)C[C@H]1C=N3)N=C[C@@H]1CC(C)=CN1C2=O [SG3199]
fold resistance compared to wildtype ([1]; NCI-N87 PBDr vs NCI-N87 wt IC50): 3.7 fold
IC50 ([1]; NCI-N87 PBDr, 144 h continuous exposure, mean, read-out: IC50): 0.0586 nM
% red. OTM (mean % reduction in Olive Tail Moment) [2]: 55.5%
% red. OTM [3]: 24%
% red. OTM [4]: 30.7%
% red. OTM [5]: 51.0%
2 hr mean % growth [6]: 33.8%
